Test results reported in US9669005B2, “Use of naringenin in preparing drugs for preventing and/or treatment abdominal aortic aneurysm” (priority 2013, dated 2017).

Columns and labels:
[1] = test system: MMP-2 and NMP-9; test: Gelatin zymography, CaPO4 model; type: in vivo; conditions: CaPO4 daubed mice; infrarenal abdominal aorta culture supernatant; FIG. 4B
Procedure: After extravasated blood in fresh removed blood vessels of infrarenal site in abdominal aortas of mice were cleared, and fat and connective tissues were removed, and blood vessels were cut into 1 cm ring, and put into 24-well plate. Blood vessels were cultured for 24 hours using 0.5 ml serum-free medium with high glucose. After the cultured supernatant protein was quantified, mercaptoethanol-free protein sample loading buffer was added, cryopreserved at −80° C. Water was used to prepare gelatin (Sigma-Aldrich, St. Louis, Mo.) into a concentration of 10 mg/ml, which was added to separation gel of protein electrophoresis according to the proportion of 1:10, causing the final concentration of gelatin as 1 mg/ml. Electrophoresis was performed in a voltage of 80V at 4° C. The gel was put into 0.25% Trixon-100 solution, and washing was performed twice in 30 minutes. […] Incubated gel was put into Coomassie brilliant blue to stain for 1-2 hours at room temperature, washed for 30 minutes with a solution having 30% methanol and 10% glacial acetic acid, a solution having 20% methanol and 10% glacial acetic acid, and a solution having 10% methanol and 5% glacial acetic acid, respectively, and then analyzed with Odyssey infrared fluorescence scanning system (LI-COR Biosciences, Lincoln, Nebr.). […]

[2] = test system: IL-6 and MCP-1; test: Immunofluorescent staining of IL-6 and MCP-1 in vascular walls, angiotensin II model; type: in vivo; conditions: AngII ApoE-/- mice; naringenin gavage; immunofluorescence; FIG. 7C
Procedure: In order to illustrate the mechanism by which naringenin reduces inflammatory reaction of abdominal aorta vascular walls of mice, immunofluorescent staining was performed on IL-6 and MCP-1 by continuous sections to analyze their distributions and expressions in vascular walls.

How did the “MMP-2 and NMP-9 (gelatin zymography)” value [1] turn out when `O=C1C[C@@H](c2ccc(O)cc2)Oc2cc(O)cc(O)c21` [naringenin] was run?
Its value is “reverse the increase of MMP-2 and NMP-9 caused by CaPO4 daubing”.

What about the “production of IL-6 and MCP-1 in vascular walls” value [2] of the same molecule?
The value was “significantly decreases”.
